Test results reported in US20220096450A1, “Compounds and Methods for Treating or Preventing Heart Failure” (DREXEL UNIVERSITY, priority 2019, published 2022).

Legend:
[1] = test system: mitochondrial CoQ-dependent respiratory complex I; assay: Biochemical selectivity assay, respiratory complex I; design: species or system mouse; conditions: highest concentration tested 11 μM
Description: Inhibitor selectivity was assessed using mouse muscle homogenate preparations that contain disrupted mitochondrial membranes, a feature that makes substrates accessible to each of the membrane-bound respiratory complexes. Spectrophotometric assays for each complex are conducted in the presence or absence of a target-specific inhibitor (FIG. 9) to correct for nonspecific substrate oxidation, as previously described (Spinazzi et al., 2012, Nature Protocols 7: 1235-1246). Thus, the activity of complex I is determined by monitoring the oxidation of NADH in the absence or presence of rotenone. Complex III activity is measured based on the rate of cytochrome C reduction observed in the presence or absence of antimycin A. The reaction catalyzed by complex II produces decylubiquinol (decylCoQH2), which rapidly reduces DCIP.

[2] = Cell Counting Kit-8 cytotoxicity assay in NVCMs; type: cell-based; conditions: Sprague-Dawley, rat, rat neonatal ventricular cardiomyocytes (NVCMs)
Source text: Rat neonatal ventricular cardiomyocytes (NVCMs) were isolated from the hearts of 1-2 day old Sprague-Dawley rats (Charles River) in 50-90% yield (70-95% viability) by following the protocol described by Golden et al. (Golden et al., 2012, in Cardiovascular Development. Methods in Molecular Biology (Methods and Protocols), vol 843 (Peng, X., Antonyak, M., Eds.) pp 205-214, Springer, Totowa, N.J.).
NVCMs are maintained in Dulbecco's modified Eagle's medium (DMEM:F12) containing 20% fetal bovine serum (FBS), 5% horse serum, 1× GlutaMAX, and 2 μg/mL insulin. For hypertrophy studies, cells were plated onto 4-well glass chamber slides, precoated with poly-D-lysine and laminin. The maintenance medium was aspirated after incubation for 72 h. The cells were serum-starved overnight in DMEM:F12 containing 1% FBS, 1× GlutaMAX, and 2 ug/mL insulin and then incubated for 24 h in fresh serum-starved medium containing angiotensin II, as indicated.
Cytotoxicity assays were conducted under the same conditions used for hypertrophy assays with NVCMs or H9C2 cells, as described elsewhere herein.

[3] = test system: TAC mouse model of heart failure; type: in vivo; conditions: 10 mg/kg i.p. daily
Description: Male C57BL/6J mice 10-14 weeks of age were purchased from The Jackson Laboratory (Bar Harbor, Me.).
Mice were anesthetized with isofluran or ketamine/xylazine. The mice were orally intubated and placed on a Harvard volume-cycled rodent ventilator to maintain respiration during surgery. The TAC procedure was performed by tying the aortic arch between the brachiocephalic trunk (innominate artery) and the left carotid artery against a 27-gauge needle spacer with a 7-0 silk suture, followed by immediate removal of the needle. For sham surgeries, thoracotomy was performed and the aorta was surgically exposed without any further intervention. Following surgical closure of the chest, the animals were allowed to recover from anesthesia, followed by post-operative care. The animals were euthanized 12 weeks post-surgery; hearts were harvested, weighed and tibia lengths were measured.
Sterile stock solutions of vehicle only [NMP:PG:kleptose in water (10:40:50)] were similarly prepared each week and stored in aliquots at 4° C. until use. […] (to minimize precipitation), and then cooled to room temperature.
Transthoracic echocardiography was used to noninvasively quantify cardiac structural and functional changes during the progression to heart failure in the TAC mouse model. Measurements were conducted with animals under 1-3% isoflurane anesthesia using a Vevo® 2100 Imaging System with a high-frequency (18-38 MHz) probe (VisualSonics MS400) (Kohut et al., 2016, J. Cardiovasc. Ultrasound 24: 229-238). Echocardiography using color Doppler ultrasound was performed at 1 week after surgery to confirm the aortic constriction. The aortic constriction was further confirmed by conducting color Doppler and pulsed wave Dopier measurements at 12 weeks after surgery. Baseline echocardiography evaluations were performed 1-2 days prior to surgery. For these studies, parasternal long and short axis images were obtained in two-dimensional B-mode and M-mode. Additional images were obtained at regular intervals (2, 4, 6, 8, 10, 12 weeks) after surgery. To evaluate cardiac structure and function, the echocardiographic data were used to determine left ventricle (LV) end-diastolic diameter, LV end-systolic diameter, LV end-diasolic volume, LV ejection fraction, LV fractional shortening, and LV mass.
Mouse hearts were collected at 12 weeks post surgery, fixed in 10% buffered formalin, and then embedded in paraffin blocks, which were used to prepare serial 4 μm thick heart sections. To detect interstitial fibrosis, heart sections were stained with Masson's trichrome which colors collagen blue and cytoplasm red. Digital images of the slides were captured at 160× magnification using a Leica DFC290 digital camera in conjunction with a Leica MZ16F microscope. […] For each heart, 2 sections taken from the mid-ventricle were analyzed. […] Images were acquired using a FV3000 Olympus Confocal Microscope and analyzed in a blinded manner by two observers. Five field views per mid-ventricle heart section were analyzed by measuring the cross-sectional area of 100 cells per field view using ImageJ. A total of 500 cells per heart section were measured.
All data are expressed as means±SEM. Statistical significance was evaluated for comparison between 3 or more means using one-way ANOVA with Tukey-Kramer post hoc test. For the echcocardiography data, obtained prior to and at two-week intervals after surgery, statistical significance was evaluated using two-way repeated ANOVA with Bonferroni post hoc test.

[4] = echocardiography, TAC mice, 12 weeks

For `COc1nc(-c2ncccc2C)cc(-c2ccc(N)cc2)c1C#N` [FC9402, 4-(4-aminophenyl)-2-methoxy-6-(3-methylpyridin-2-yl)pyridine-3-carbonitrile], the “inhibition of respiratory complex I” value [1] was “did not inhibit”, the CC50 at 24 h [2] was 27.9 ± 2.6 µM and the “survival after 12 weeks” value ([3]; TAC mice) was 100%. For the same compound, the “cardiac enlargement (gross morphology, heart weight to tibia length)” value ([3]; TAC mice, 12 weeks) was “prevented the TAC-induced cardiac enlargement”, the “left ventricle function (ejection fraction, fractional shortening)” value [3, 4] was “preserved left ventricle function” and the “left ventricle size (diameter, volume, mass)” value [3, 4] was “maintained left ventricle size”. For the same compound, the “mice that developed heart failure” value ([3]; lung weight/tibia length above 95% confidence interval of sham) was 20%.
